Data published in patent US9872499B2, “Virus-inactivating composition containing low-molecular weight compound and arginine” (priority 2010, dated 2018).

Columns and labels:
[1] = system: herpes simplex virus type 1 (HSV-1) strain F; experiment: Virus inactivating reaction with HSV-1 in sample solution, remaining infectious virus by plaque assay; format: cell-based
[2] = system: influenza virus A/Aichi (H3N2); experiment: Virus inactivating reaction with influenza virus A in sample solution, remaining infectious virus by plaque assay; format: cell-based; conditions: for Relative Inactivating Efficiency: relative to 0.01% CAE alone
[3] = 0.1 mM catechin compound alone, pH 4.0, 30° C. 5 min
[4] = 0.1 mM catechin compound, 0 M arginine, pH 4.0, relative to 0.1 mM of the same compound alone
[5] = 0.1 mM catechin compound, 0.2 M arginine, pH 4.0, relative to 0.1 mM of the same compound alone
[6] = 0.5 mM catechin compound, 0 M arginine, pH 4.0, relative to 0.1 mM of the same compound alone

(−)epigallocatechin gallate
remaining viral titer, % of the viral amount before inactivation [1, 3]: 0.02%
Relative Inactivating Efficiency [1, 4]: 1 times
Relative Inactivating Efficiency [1, 5]: 12 times
Relative Inactivating Efficiency [1, 6]: 268 times

O=C(O[C@@H]1Cc2c(O)cc(O)cc2O[C@@H]1c1ccc(O)c(O)c1)c1cc(O)c(O)c(O)c1 [(−)epicatechin gallate]
remaining viral titer, % of the viral amount before inactivation [1, 3]: 0.04%
Relative Inactivating Efficiency [1, 4]: 1 times
Relative Inactivating Efficiency [1, 5]: 59 times
Relative Inactivating Efficiency [1, 6]: 27 times

O=C(O)/C=C/c1ccc(O)c(O)c1 [Caffeic acid, caffeic acid]
viral titer after inactivation, % of that before inactivation ([1]; 0.1 mM caffeic acid alone, pH 4.0 (Comparative Example 2)): 0.13%
viral titer after inactivation, % of the viral amount before inactivation ([1]; 0.1 mM caffeic acid alone, pH 4.0, 30° C. 5 min (Example 1)): 0.3%
Relative Inactivating Efficiency ([1]; 0.1 mM caffeic acid, 0 M NaCl, pH 4.0, 20 mM sodium acetate, relative to 0.1 mM caffeic acid alone): 1 times
Relative Inactivating Efficiency ([1]; 0.1 mM caffeic acid, 0 M arginine, pH 4.0, 30° C. 5 min, relative to 0.1 mM caffeic acid alone): 1 times
Relative Inactivating Efficiency ([1]; 0.1 mM caffeic acid, 0.2 M NaCl, pH 4.0, relative to 0.1 mM caffeic acid alone): 0.010 times
Relative Inactivating Efficiency ([1]; 0.1 mM caffeic acid, 0.2 M NaCl, pH 4.0, relative to 0.1 mM caffeic acid alone, listed as caffeic acid): 0.01 times
Relative Inactivating Efficiency ([1]; 0.1 mM caffeic acid, 0.2 M arginine, pH 4.0, 30° C. 5 min, relative to 0.1 mM caffeic acid alone): 1.5 times
Relative Inactivating Efficiency ([1]; 0.5 mM caffeic acid, 0 M arginine, pH 4.0, 30° C. 5 min, relative to 0.1 mM caffeic acid alone): 1.3 times
Relative Inactivating Efficiency ([1]; 0.5 mM caffeic acid, 0.2 M NaCl, pH 4.0, relative to 0.1 mM caffeic acid alone): 0.009 times
Relative Inactivating Efficiency ([1]; 0.5 mM caffeic acid, 0.2 M arginine, pH 4.0, 30° C. 5 min, relative to 0.1 mM caffeic acid alone): 3.3 times
Relative Inactivating Efficiency ([1]; 1 mM caffeic acid, 0 M arginine, pH 4.0, 30° C. 5 min, relative to 0.1 mM caffeic acid alone): 1.4 times
Relative Inactivating Efficiency ([1]; 1.0 mM caffeic acid, 0.2 M NaCl, pH 4.0, relative to 0.1 mM caffeic acid alone): 0.007 times
Relative Inactivating Efficiency ([1]; 1 mM caffeic acid, 0.2 M arginine, pH 4.0, 30° C. 5 min, relative to 0.1 mM caffeic acid alone): 7.8 times

O=C(/C=C/c1ccc(O)c(O)c1)OCCc1ccccc1 [Caffeic acid phenethyl ester, caffeic acid phenethyl ester]
remaining viral titer, % of that obtained before inactivation ([1]; 0.01 mM caffeic acid phenethyl ester alone, pH 4.0, 30° C. 5 min): 0.3%
Relative Inactivating Efficiency ([1]; 0.01 mM caffeic acid phenethyl ester, 0 M arginine, pH 4.0, relative to 0.01 mM compound alone): 1 times
Relative Inactivating Efficiency ([1]; 0.01 mM caffeic acid phenethyl ester, 0.2 M arginine, pH 4.0, relative to 0.01 mM compound alone): 8 times
Relative Inactivating Efficiency ([1]; 0.05 mM caffeic acid phenethyl ester, 0 M arginine, pH 4.0, relative to 0.01 mM compound alone): 1 times
Relative Inactivating Efficiency ([1]; 0.05 mM caffeic acid phenethyl ester, 0.2 M arginine, pH 4.0, relative to 0.01 mM compound alone): 122 times
Relative Inactivating Efficiency ([1]; 0.1 mM caffeic acid phenethyl ester, 0 M arginine, pH 4.0, relative to 0.01 mM compound alone): 1 times
Relative Inactivating Efficiency ([1]; 0.1 mM caffeic acid phenethyl ester, 0.2 M arginine, pH 4.0, relative to 0.01 mM compound alone): >243 times
Relative Inactivating Efficiency ([1]; 0.1 mM caffeic acid phenethyl ester, 0.2 M arginine, pH 4.0, relative to 0.01 mM compound alone, listed as caffeic acid phenethyl ester): more than 243 times

cocoyl arginine ethyl ester [CAE]
viral titer after inactivation, % of that before inactivation ([1]; 0.005% CAE alone, pH 4.0, 30° C. 5 min): 0.4%
Relative Inactivating Efficiency ([1]; 0.005% CAE, 0 M arginine, pH 4.0, 10 mM sodium citrate, relative to 0.005% CAE alone): 1 times
Relative Inactivating Efficiency ([1]; 0.005% CAE, 0.058 M arginine, pH 4.0, relative to 0.005% CAE alone): 1.13 times
Relative Inactivating Efficiency ([1]; 0.005% CAE, 0.115 M arginine, pH 4.0, relative to 0.005% CAE alone): 20 times
viral titer after inactivation, % of that before inactivation ([2]; 0.01% CAE alone, pH 4.8, 30° C. 5 min): 3.1%
Relative Inactivating Efficiency ([2]; 0.01% CAE, 0 M arginine, pH 4.8, 10 mM sodium citrate): 1 Times
Relative Inactivating Efficiency ([2]; 0.01% CAE, 0.115 M arginine, pH 4.8): 82 Times
Relative Inactivating Efficiency ([2]; 0.02% CAE, 0.115 M arginine, pH 4.8): 63 Times

[Cl-].[Na+] [NaCl, reference compound]
Relative Inactivating Efficiency ([1]; pH 4): 0.011 times

O=C1O[C@H]([C@@H](O)CO)C(=O)C1=O [Dehydroascorbic acid, dehydroascorbic acid]
remaining viral titer, % of the viral amount before inactivation ([1]; 0.1 mM dehydroascorbic acid alone, pH 4.0, 30° C. 5 min): 7.3%
Relative Inactivating Efficiency ([1]; 0.1 mM dehydroascorbic acid, 0 M arginine, pH 4.0, relative to 0.1 mM compound alone): 1 times
Relative Inactivating Efficiency ([1]; 0.1 mM dehydroascorbic acid, 0.2 M arginine, pH 4.0, relative to 0.1 mM compound alone): 248 times
Relative Inactivating Efficiency ([1]; 1 mM dehydroascorbic acid, 0 M arginine, pH 4.0, relative to 0.1 mM compound alone): 1 times
Relative Inactivating Efficiency ([1]; 1 mM dehydroascorbic acid, 0.2 M arginine, pH 4.0, relative to 0.1 mM compound alone): 1440 times
Relative Inactivating Efficiency ([1]; 10 mM dehydroascorbic acid, 0 M arginine, pH 4.0, relative to 0.1 mM compound alone): 1 times
Relative Inactivating Efficiency ([1]; 10 mM dehydroascorbic acid, 0.2 M arginine, pH 4.0, relative to 0.1 mM compound alone): >7200 times
Relative Inactivating Efficiency ([1]; 10 mM dehydroascorbic acid, 0.2 M arginine, pH 4.0, relative to 0.1 mM compound alone, listed as dehydroascorbic acid): more than 7200 times

N=C(N)NCCC[C@H](N)C(=O)O [Arginine, arginine]
Relative Inactivating Efficiency ([1]; 0% CAE, 0.058 M arginine alone, pH 4.0, 10 mM sodium citrate, relative to 0.005% CAE alone): 0.03 times
Relative Inactivating Efficiency ([1]; pH 4): 1075 times
